# Assay results reported in patent US20240327789A1, “HUMAN CEREBELLAR ORGANOIDS WITH BONA FIDE PURKINJE CELLS AND USES THEREOF” (University of Southern California, priority 2023, published 2024).
# System: hCerOs
# Assay: Two-photon calcium imaging of intact hCerOs with bath application of drugs
# Format: cell-based, human
smiles,measurement,value
NC1=N[C@H](O)[C@H]2[C@H]3O[C@]4(O)O[C@@H]([C@@H](O)[C@@]2(N1)[C@@H]4O)[C@]3(O)CO [Tetrodotoxin],sensitivity of individual Ca2+ neuronal calcium signals,sensitive
